Results reported in patent publication US8445636B2, “Antimicrobial and anticancer lipopeptides” (Yeda Research & Development Co. Ltd., priority 2003, dated 2013).
≈ marks a conversion by molar mass, not a printed value. Like-named read-outs stand apart in the source and are kept apart here. Non-standard residues stand in square brackets, D forms with d. Residues, ends and D or L forms follow the SMILES beside them. *: point of attachment. Lauroyl = CCCCCCCCCCCC(=O)*

Assays:
Format in all cases: cell-based
[1] = system: Candida albicans ATCC 10231; assay: microbe, parasite or virus in culture
Procedure: (§1) The antifungal activity of the lipopeptides was examined in sterile 96-well plates (Nunc F96 microtiter plates) in a final volume of 200 μL as follows: 100 µl of a suspension containing fungi at a concentration of 1×10^4 Colony-Forming Units (CFU)/ml in culture medium (RPMI 1640, 0.165 M MOPS with L-glutamine, without NaHCO3) at pH 7.4 or pH 5.5 (adjustment of the pH was done by diluted solutions of HCl and NaOH) were added to 100 μl of water containing the peptide in serial 2-fold dilutions in water. The fungi were incubated in the presence of the lipopeptides for 24-48 h at 35° C. in a Binder KB115 incubator under agitation. Growth inhibition was determined by measuring the absorbance at 620 nm with a Microplate autoreader E1309 (Bio-Tek Instruments). Antifungal activity is expressed as the minimal inhibitory concentration (MIC), the concentration at which 100% inhibition of fungi growth was observed after the incubation time mentioned above. The fungi used were: Aspergillus niger ATCC 9642, Candida albicans ATCC 10231 and Cryptococcus neoformans ATCC 66031. If not indicated otherwise, the fungi growth was detected at pH 7.4.

[2] = system: Cryptococcus neoformans ATCC 66031; assay: microbe, parasite or virus in culture
Procedure: as §1

[3] = system: Cryptococcus neoformans ATCC MYA-422; assay: microbe, parasite or virus in culture; settings: Cryptococcus neoformans; Table 9, short lipopeptides; pH 7.4; mean of 3 experiments, standard deviation of 25%; read-out: Minimal Inhibitory Concentration, Cyrptococcus neoformans (ATCC MYA-422)
[4] = system: Aspergillus fumigatus ATCC 26430; assay: microbe, parasite or virus in culture
E. coli D21 = system: E. coli D21
[5] = system: Acinetobacter baumannii ATCC 19606
Procedure: (§2) The antibacterial activity of the lipopeptides was examined in sterile 96-well plates (Nunc F96 microtiter plates) in a final volume of 100 μl as follows: Aliquots (50 μl) of a suspension containing bacteria at concentration of 1×10^6 Colony-Forming Units (CFU)/ml in culture LB (Lauria broth) medium (pH 7.4 or pH 5.5) were added to 50 μl of water containing the lipopeptide in serial 2-fold dilutions in water. Adjustment of the pH was done by diluted solutions of HCl and NaOH Inhibition of growth was determined by measuring the absorbance at 600 nm with a Microplate autoreader E1309 (Bio-Tek Instruments), after an incubation time of 18-20 h at 37° C. Antibacterial activities were expressed as the minimal inhibitory concentration (MIC), the concentration at which 100% inhibition of growth was observed after 18-20 h of incubation. The bacteria used were: Escherichia coli ATCC 25922, Acinetobacter baumannii ATCC 19606, Pseudomonas aeruginosa ATCC 27853, Staphylococcus aureus ATCC 6538P, Enterococcus faecalis ATCC 29212, Enterobacter cloacae ATCC 49141. The antibacterial activity of lipopeptides was also examined against resistant bacteria: methicilin-resistant Staphylococcus aureus (MRSA) ATCC 700698 and vancomycin-resistant Enterococcus faecium (VRE) ATCC 700221. If not indicated otherwise, the bacterial growth was detected at pH 7.4.

[6] = system: Escherichia coli ATCC 25922
Procedure: as §2

[7] = system: Pseudomonas aeruginosa ATCC 27853
Procedure: as §2

[8] = system: Staphylococcus aureus ATCC 6538P
Procedure: as §2

C[C@@H]1[C@H](O)[C@@H](C)/C=C/C=C/C=C/C=C/C=C/C=C/C=C/[C@H](O[C@@H]2O[C@H](C)[C@@H](O)[C@H](N)[C@@H]2O)C[C@@H]2O[C@](O)(C[C@@H](O)C[C@@H](O)[C@H](O)CC[C@@H](O)C[C@@H](O)CC(=O)O[C@H]1C)C[C@H](O)[C@H]2C(=O)O [Amphotericin, reference compound]
MIC ([1]; Candida albicans, ATCC10231, Table 9, short lipopeptides, pH 7.4, mean of 3 experiments, standard deviation of 25%, read-out: Minimal Inhibitory Concentration, Candida Albicans (ATCC 10231)): 0.625 µM (≈ 0.578 µg/mL)
MIC ([1]; Candida albicans, ATCC10231, Table 12, with serum, pH 7.4, read-out: Minimal inhibitory concentrations, C. Albicans With serum): 0.78 µM (≈ 0.721 µg/mL)
MIC ([1]; Candida albicans, ATCC10231, Table 12, without serum, pH 7.4, read-out: Minimal inhibitory concentrations, C. Albicans Without serum): 3.12 µM (≈ 2.89 µg/mL)
MIC ([1]; Candida albicans, ATCC10231, Table 13, pH 5.5, with serum, read-out: Minimal inhibitory concentrations, C. Albicans With serum): 0.78 µM (≈ 0.721 µg/mL)
MIC ([1]; Candida albicans, ATCC10231, Table 13, pH 5.5, without serum, read-out: Minimal inhibitory concentrations, C. Albicans Without serum): 9.38 µM (≈ 8.66 µg/mL)
MIC ([2]; Cryptococcus neoformans, ATCC66031, Table 12, with serum, pH 7.4, read-out: Minimal inhibitory concentrations, C. Neofor. With serum): < 0.78 µM
MIC ([2]; Cryptococcus neoformans, ATCC66031, Table 12, without serum, pH 7.4, read-out: Minimal inhibitory concentrations, C. Neofor. Without serum): < 0.78 µM
MIC ([2]; Cryptococcus neoformans, ATCC66031, Table 13, pH 5.5, with serum, read-out: Minimal inhibitory concentrations, C. Neofor. With serum): < 0.78 µM
MIC ([2]; Cryptococcus neoformans, ATCC66031, Table 13, pH 5.5, without serum, read-out: Minimal inhibitory concentrations, C. Neofor. Without serum): 3.12 µM (≈ 2.89 µg/mL)
MIC [3]: 0.312 µM (≈ 0.288 µg/mL)
MIC ([4]; Aspergillus fumigatus, ATCC26430, Table 9, short lipopeptides, pH 7.4, mean of 3 experiments, standard deviation of 25%, read-out: Minimal Inhibitory Concentration, Aspergillus Fomigatus (ATCC 26430)): 1.25 µM (≈ 1.16 µg/mL)
MIC ([4]; Aspergillus fumigatus, ATCC26430, Table 12, with serum, pH 7.4, read-out: Minimal inhibitory concentrations, A. Fumig. With serum): < 0.78 µM
MIC ([4]; Aspergillus fumigatus, ATCC26430, Table 12, without serum, pH 7.4, read-out: Minimal inhibitory concentrations, A. Fumig. Without serum): 2.34 µM (≈ 2.16 µg/mL)
MIC ([4]; Aspergillus fumigatus, ATCC26430, Table 13, pH 5.5, with serum, read-out: Minimal inhibitory concentrations, A. Fumig. With serum): < 0.78 µM
MIC ([4]; Aspergillus fumigatus, ATCC26430, Table 13, pH 5.5, without serum, read-out: Minimal inhibitory concentrations, A. Fumig. Without serum): 3.12 µM (≈ 2.89 µg/mL)

CCCCCCCCCCCC(=O)N[C@H](CC(C)C)C(=O)N[C@@H](CCCNC(=N)N)C(=O)N[C@@H](Cc1c[nH]cn1)C(=O)N[C@H](CC(C)C)C(=O)N[C@H](CC(C)C)C(=O)N[C@@H](CCCNC(=N)N)C(=O)N[C@@H](Cc1c[nH]cn1)C(=O)N[C@H](CC(C)C)C(=O)N[C@H](CC(C)C)C(=O)N[C@@H](CCCNC(=N)N)C(=O)N[C@@H](Cc1c[nH]cn1)C(=O)N[C@H](CC(C)C)C(N)=O [lipopeptide 27, (CH3-(CH2)10-CO-)-D-Leu-Arg-His-D-Leu-D-Leu-Arg-His-D-Leu-D-Leu-Arg-His-D-Leu-NH2] (Lauroyl-[dL]RH[dL][dL]RH[dL][dL]RH[dL]-NH2)
Minimal inhibitory concentrations, E. Coli D21 (E. coli D21; D21, pH 5.5): 100 µM (≈ 176 µg/mL)
Minimal inhibitory concentrations, E. Coli D21 (E. coli D21; D21, pH 7.4): 100 µM (≈ 176 µg/mL)
Minimal inhibitory concentrations, A. baumannii ATCC 19606 ([5]; ATCC 19606, pH 5.5): >100 µM
Minimal inhibitory concentrations, A. baumannii ATCC 19606 ([5]; ATCC 19606, pH 7.4): 100 µM (≈ 176 µg/mL)
Minimal inhibitory concentrations, E. Coli ATCC 25922 ([6]; ATCC 25922, pH 5.5): 100 µM (≈ 176 µg/mL)
Minimal inhibitory concentrations, E. Coli ATCC 25922 ([6]; ATCC 25922, pH 7.4): 100 µM (≈ 176 µg/mL)
Minimal inhibitory concentrations, P. Aeruginosa ATCC 27853 ([7]; ATCC 27853, pH 5.5): 100 µM (≈ 176 µg/mL)
Minimal inhibitory concentrations, P. Aeruginosa ATCC 27853 ([7]; ATCC 27853, pH 7.4): 100 µM (≈ 176 µg/mL)
Minimal inhibitory concentrations, S. aureus II ATCC 6538P ([8]; ATCC 6538, pH 5.5): 100 µM (≈ 176 µg/mL)
Minimal inhibitory concentrations, S. aureus II ATCC 6538P ([8]; ATCC 6538, pH 7.4): 100 µM (≈ 176 µg/mL)
MIC ([1]; ATCC 10231, pH 5.5, read-out: Minimal inhibitory concentrations, C. Albicans With serum): >100 µM
MIC ([1]; ATCC 10231, pH 5.5, read-out: Minimal inhibitory concentrations, C. Albicans Without serum): 25 µM (≈ 44 µg/mL)
MIC ([1]; ATCC 10231, pH 7.4, read-out: Minimal inhibitory concentrations, C. Albicans With serum): >100 µM
MIC ([1]; ATCC 10231, pH 7.4, read-out: Minimal inhibitory concentrations, C. Albicans Without serum): 12.5 µM (≈ 22 µg/mL)
MIC ([2]; ATCC 66031, pH 5.5, read-out: Minimal inhibitory concentrations, C. Neofor. With serum): 25 µM (≈ 44 µg/mL)
MIC ([2]; ATCC 66031, pH 5.5, read-out: Minimal inhibitory concentrations, C. Neofor. Without serum): 1.56 µM (≈ 2.74 µg/mL)
MIC ([2]; ATCC 66031, pH 7.4, read-out: Minimal inhibitory concentrations, C. Neofor. With serum): 25 µM (≈ 44 µg/mL)
MIC ([2]; ATCC 66031, pH 7.4, read-out: Minimal inhibitory concentrations, C. Neofor. Without serum): 3.125 µM (≈ 5.49 µg/mL)
MIC ([4]; ATCC 26430, pH 5.5, read-out: Minimal inhibitory concentrations, A. Fumig. With serum): 100 µM (≈ 176 µg/mL)
MIC ([4]; ATCC 26430, pH 5.5, read-out: Minimal inhibitory concentrations, A. Fumig. Without serum): 6.25 µM (≈ 11 µg/mL)
MIC ([4]; ATCC 26430, pH 7.4, read-out: Minimal inhibitory concentrations, A. Fumig. With serum): 100 µM (≈ 176 µg/mL)
MIC ([4]; ATCC 26430, pH 7.4, read-out: Minimal inhibitory concentrations, A. Fumig. Without serum): 25 µM (≈ 44 µg/mL)

CCCCCCCCCCCC(=O)N[C@H](CC(C)C)C(=O)N[C@@H](Cc1c[nH]cn1)C(=O)N[C@@H](Cc1c[nH]cn1)C(=O)N[C@H](CC(C)C)C(=O)N[C@H](CC(C)C)C(=O)N[C@@H](Cc1c[nH]cn1)C(=O)N[C@@H](Cc1c[nH]cn1)C(=O)N[C@H](CC(C)C)C(=O)N[C@H](CC(C)C)C(=O)N[C@@H](Cc1c[nH]cn1)C(=O)N[C@@H](Cc1c[nH]cn1)C(=O)N[C@H](CC(C)C)C(N)=O [lipopeptide 26, (CH3-(CH2)10-CO-)-D-Leu-His-His-D-Leu-D-Leu-His-His-D-Leu-D-Leu-His-His-D-Leu-NH2] (Lauroyl-[dL]HH[dL][dL]HH[dL][dL]HH[dL]-NH2)
Minimal inhibitory concentrations, E. Coli D21 (E. coli D21; Table 6, pH 7.4): >100 µM
Minimal inhibitory concentrations, E. Coli D21 (E. coli D21; Table 7, pH 5.5): 100 µM (≈ 170 µg/mL)
Minimal inhibitory concentrations, A. baumannii ATCC 19606 ([5]; Table 6, pH 7.4): 100 µM (≈ 170 µg/mL)
Minimal inhibitory concentrations, A. baumannii ATCC 19606 ([5]; Table 7, pH 5.5): >100 µM
Minimal inhibitory concentrations, E. Coli ATCC 25922 ([6]; Table 6, pH 7.4): >100 µM
Minimal inhibitory concentrations, E. Coli ATCC 25922 ([6]; Table 7, pH 5.5): >100 µM
Minimal inhibitory concentrations, P. Aeruginosa ATCC 27853 ([7]; Table 6, pH 7.4): >100 µM
Minimal inhibitory concentrations, P. Aeruginosa ATCC 27853 ([7]; Table 7, pH 5.5): 100 µM (≈ 170 µg/mL)
Minimal inhibitory concentrations, S. aureus II ATCC 6538P ([8]; Table 6, pH 7.4): 100 µM (≈ 170 µg/mL)
Minimal inhibitory concentrations, S. aureus II ATCC 6538P ([8]; Table 7, pH 5.5): >100 µM
MIC ([1]; Table 12, with serum, pH 7.4, read-out: Minimal inhibitory concentrations, C. Albicans With serum): >100 µM
MIC ([1]; Table 12, without serum, pH 7.4, read-out: Minimal inhibitory concentrations, C. Albicans Without serum): >100 µM
MIC ([1]; Table 13, pH 5.5, with serum, read-out: Minimal inhibitory concentrations, C. Albicans With serum): >100 µM
MIC ([1]; Table 13, pH 5.5, without serum, read-out: Minimal inhibitory concentrations, C. Albicans Without serum): 9.375 µM (≈ 15.9 µg/mL)
MIC ([2]; Table 12, with serum, pH 7.4, read-out: Minimal inhibitory concentrations, C. Neofor. With serum): 100 µM (≈ 170 µg/mL)
MIC ([2]; Table 12, without serum, pH 7.4, read-out: Minimal inhibitory concentrations, C. Neofor. Without serum): 12.5 µM (≈ 21.3 µg/mL)
MIC ([2]; Table 13, pH 5.5, with serum, read-out: Minimal inhibitory concentrations, C. Neofor. With serum): 50 µM (≈ 85.1 µg/mL)
MIC ([2]; Table 13, pH 5.5, without serum, read-out: Minimal inhibitory concentrations, C. Neofor. Without serum): 3.125 µM (≈ 5.32 µg/mL)
MIC ([4]; Table 12, with serum, pH 7.4, read-out: Minimal inhibitory concentrations, A. Fumig. With serum): 100 µM (≈ 170 µg/mL)
MIC ([4]; Table 12, without serum, pH 7.4, read-out: Minimal inhibitory concentrations, A. Fumig. Without serum): >100 µM
MIC ([4]; Table 13, pH 5.5, with serum, read-out: Minimal inhibitory concentrations, A. Fumig. With serum): 100 µM (≈ 170 µg/mL)
MIC ([4]; Table 13, pH 5.5, without serum, read-out: Minimal inhibitory concentrations, A. Fumig. Without serum): 6.25 µM (≈ 10.6 µg/mL)
